For one test, the target named is DGKζ (Homo sapiens (Human), UniProt Q13574). Put plainly: Biochemical DGK IC50 assay (ADP-Glo, lipid micelle substrate), DGKζ. The note with it: full length DGKζ 0.5 nM, ATP 140 μM, DAG 80 μM. A digest of the protocol:
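Full-length human His-TEV-tagged DGKζ, expressed in Sf9 cells and purified, was run at room temperature on DAG/PS lipid micelles in 50 mM HEPES, 10 mM MgCl2, 0.01 mM CaCl2 buffer. After 1 h reaction, ADP formed was detected by ADP-Glo luminescence. IC50s came from inhibition across increasing compound concentrations.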
(In general: In ADP-Glo the light output rises with the ADP produced.)

The target in the next test is DGKα (Homo sapiens (Human), UniProt P23743). Description: Biochemical DGK IC50 assay (ADP-Glo, lipid micelle substrate), DGKα. Also: full length DGKα 7.5 nM. As to conditions: full length DGKα […], ATP 140 μM, DAG 80 μM. A digest of the protocol:
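Full-length human DGKα assayed by ADP-Glo with DAG/PS lipid micelle substrate at room temperature in 50 mM HEPES, 10 mM MgCl2, 0.01% BSA, 0.1 mM Na3VO4, 0.005% Tween-20, 0.01 mM CaCl2.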

This is an account of results in US20250346597A1, “CONDENSED HETEROCYCLIC COMPOUNDS AS INHIBITOR OF DIACYLGLYCEROL KINASES” (BEONE MEDICINES I GMBH, priority 2023, published 2025).

Sequence of DGKζ (Q13574 other isoform, or with tags, fused parts or gaps): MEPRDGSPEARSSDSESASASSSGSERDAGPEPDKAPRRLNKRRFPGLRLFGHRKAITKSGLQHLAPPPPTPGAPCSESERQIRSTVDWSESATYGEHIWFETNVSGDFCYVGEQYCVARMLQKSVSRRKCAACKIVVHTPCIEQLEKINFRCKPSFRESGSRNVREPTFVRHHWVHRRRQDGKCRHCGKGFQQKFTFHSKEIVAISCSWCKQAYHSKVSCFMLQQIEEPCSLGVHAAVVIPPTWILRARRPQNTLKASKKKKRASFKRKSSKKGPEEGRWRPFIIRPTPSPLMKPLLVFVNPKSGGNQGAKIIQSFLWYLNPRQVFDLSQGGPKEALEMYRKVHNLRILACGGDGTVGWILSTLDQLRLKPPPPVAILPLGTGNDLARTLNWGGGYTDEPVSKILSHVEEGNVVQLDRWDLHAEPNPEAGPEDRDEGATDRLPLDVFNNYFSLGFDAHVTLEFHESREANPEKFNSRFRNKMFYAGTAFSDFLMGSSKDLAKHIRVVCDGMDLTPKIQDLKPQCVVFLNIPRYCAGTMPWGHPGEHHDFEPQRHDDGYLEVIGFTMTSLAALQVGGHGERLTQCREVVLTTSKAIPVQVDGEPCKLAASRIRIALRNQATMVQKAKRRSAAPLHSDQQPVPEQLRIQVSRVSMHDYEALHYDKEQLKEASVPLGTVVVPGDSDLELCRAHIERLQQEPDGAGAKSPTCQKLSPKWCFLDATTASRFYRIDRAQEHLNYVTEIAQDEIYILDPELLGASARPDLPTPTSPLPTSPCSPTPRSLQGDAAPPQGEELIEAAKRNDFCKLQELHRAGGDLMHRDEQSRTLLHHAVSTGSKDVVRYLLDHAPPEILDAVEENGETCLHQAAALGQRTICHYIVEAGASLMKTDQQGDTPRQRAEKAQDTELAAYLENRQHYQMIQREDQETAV
Sequence of DGKα (P23743 whole entry): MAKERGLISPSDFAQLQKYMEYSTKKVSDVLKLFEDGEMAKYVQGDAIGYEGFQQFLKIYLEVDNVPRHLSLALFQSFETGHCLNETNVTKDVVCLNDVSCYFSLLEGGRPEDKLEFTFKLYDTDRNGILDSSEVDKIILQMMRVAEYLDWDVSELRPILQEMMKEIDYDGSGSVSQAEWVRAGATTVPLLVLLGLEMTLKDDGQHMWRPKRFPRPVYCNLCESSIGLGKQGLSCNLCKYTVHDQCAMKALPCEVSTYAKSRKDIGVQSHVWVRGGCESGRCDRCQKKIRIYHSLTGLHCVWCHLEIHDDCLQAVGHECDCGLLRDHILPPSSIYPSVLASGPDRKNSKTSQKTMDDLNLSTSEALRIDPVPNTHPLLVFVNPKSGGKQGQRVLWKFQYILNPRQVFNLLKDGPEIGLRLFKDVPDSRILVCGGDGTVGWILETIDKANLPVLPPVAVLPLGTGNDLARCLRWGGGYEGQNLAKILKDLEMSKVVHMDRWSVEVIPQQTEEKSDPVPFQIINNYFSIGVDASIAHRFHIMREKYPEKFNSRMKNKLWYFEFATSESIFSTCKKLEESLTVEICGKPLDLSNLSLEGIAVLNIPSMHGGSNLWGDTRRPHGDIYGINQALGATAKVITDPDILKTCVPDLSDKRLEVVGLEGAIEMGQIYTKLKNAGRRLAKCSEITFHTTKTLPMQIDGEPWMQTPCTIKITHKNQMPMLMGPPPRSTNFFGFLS

Take `CC[C@H]1CN(C(C)c2ccn3nccc3n2)[C@H](CC)CN1c1nc(=O)n(C)c2cn(CC#N)nc12` (single isomer, unassigned) [Compound A163a]: the IC50 (in general, the concentration needed to halve the response being measured) is over 10000 nM at DGKζ and 1900 nM at DGKα.

As for `CC[C@H]1CN(C(C)c2ccn3nccc3n2)[C@H](CC)CN1c1nc(=O)n(C)c2cn(CC#N)nc12` (single isomer, unassigned) [Compound A163b], the IC50 came to 426 nM on DGKζ and 71 nM at DGKα.

With `CC[C@H]1CN(C(C)c2ccn3ncc(F)c3n2)[C@H](CC)CN1c1nc(=O)n(C)c2cn(CC#N)nc12` (single isomer, unassigned) [Compound A164a], the IC50 at DGKζ is over 10000 nM; against DGKα, 7300 nM.

For `CC[C@H]1CN(C(C)c2ccn3ncc(F)c3n2)[C@H](CC)CN1c1nc(=O)n(C)c2cn(CC#N)nc12` (single isomer, unassigned) [Compound A164b], the values for the IC50 against DGKζ and against DGKα were 88 nM and 134 nM, respectively.

For `CC[C@H]1CN(C(C)c2ccn3ncc(F)c3c2)[C@H](CC)CN1c1cc(=O)n(C)c2cn(CC#N)nc12` (single isomer, unassigned) [Compound A165a], the IC50 against DGKζ is 12 nM; at DGKα, 96 nM.

`CC[C@H]1CN(C(C)c2ccn3ncc(F)c3c2)[C@H](CC)CN1c1cc(=O)n(C)c2cn(CC#N)nc12` (single isomer, unassigned) [Compound A165b]: the figures for the IC50 at DGKζ and on DGKα were 1580 nM and 2440 nM, respectively.

On to `CC[C@@H]1CN(c2cc(=O)n(C)c3cn(CC#N)nc23)[C@@H](C)CN1C(C)c1ccn2nccc2n1` (single isomer, unassigned) [Compound A166a], for which the IC50 worked out at 227 nM against DGKζ and 93 nM on DGKα.

Regarding `CC[C@@H]1CN(c2cc(=O)n(C)c3cn(CC#N)nc23)[C@@H](C)CN1C(C)c1ccn2nccc2n1` (single isomer, unassigned) [Compound A166b], the IC50 is over 10000 nM at DGKζ and 1630 nM at DGKα.

`CC[C@H]1CN(C(C)c2ccc3ncc(Cl)n3n2)[C@H](CC)CN1c1cc(=O)n(C)c2cn(CC#N)nc12` (single isomer, unassigned) [Compound A167a]: the IC50 on DGKζ and at DGKα was over 10000 nM throughout.

Consider `CC[C@H]1CN(C(C)c2ccc3ncc(Cl)n3n2)[C@H](CC)CN1c1cc(=O)n(C)c2cn(CC#N)nc12` (single isomer, unassigned) [Compound A167b], for which the IC50 at DGKζ is 23 nM; against DGKα, 219 nM.

In the case of `CC[C@H]1CN(C(C)c2ccc3ncc(F)n3n2)[C@H](CC)CN1c1cc(=O)n(C)c2cn(CC#N)nc12` (single isomer, unassigned) [Compound A168a], the IC50 came out at 3600 nM on DGKζ and 3410 nM at DGKα.

`CC[C@H]1CN(C(C)c2ccc3ncc(F)n3n2)[C@H](CC)CN1c1cc(=O)n(C)c2cn(CC#N)nc12` (single isomer, unassigned) [Compound A168b]: the IC50 at DGKζ turned out to be 69 nM; on DGKα it was 54 nM.

In the case of `CC[C@H]1CN(C(C)c2ccn3nc(C)c(F)c3c2)[C@H](CC)CN1c1cc(=O)n(C)c2cn(CC#N)nc12` (single isomer, unassigned) [Compound A169a], the IC50 is 211 nM at DGKζ and 3210 nM against DGKα.

For the compound `CC[C@H]1CN(C(C)c2ccn3nc(C)c(F)c3c2)[C@H](CC)CN1c1cc(=O)n(C)c2cn(CC#N)nc12` (single isomer, unassigned) [Compound A169b], the IC50 on DGKζ is 9280 nM; against DGKα, over 10000 nM.

For the compound `CC[C@H]1CN(C(C)c2ccn3nc(C)c(F)c3n2)[C@H](CC)CN1c1nc(=O)n(C)c2cn(CC#N)nc12` (single isomer, unassigned) [Compound A170a], the IC50 against DGKζ and against DGKα was over 10000 nM throughout.

Consider `CC[C@H]1CN(C(C)c2ccn3nc(C)c(F)c3n2)[C@H](CC)CN1c1nc(=O)n(C)c2cn(CC#N)nc12` (single isomer, unassigned) [Compound A170b], for which the IC50 came to 52.5 nM against DGKζ and 109 nM against DGKα.

Take `CCC(c1ccn2nc(C)cc2n1)N1C[C@H](C)N(c2cc(=O)n(C)c3cn(CC#N)nc23)C[C@H]1CC` (single isomer, unassigned) [Compound A171a]: the IC50 against DGKζ turned out to be 116 nM; on DGKα, 107 nM.

As for `CCC(c1ccn2nc(C)cc2n1)N1C[C@H](C)N(c2cc(=O)n(C)c3cn(CC#N)nc23)C[C@H]1CC` (single isomer, unassigned) [Compound A171b], the IC50 against DGKζ was 5430 nM; against DGKα, 2690 nM.

Regarding `CC[C@@H]1CN(c2cc(=O)n(C)c3cn(CC#N)nc23)[C@@H](C)CN1C(C)c1ccn2nc(C)cc2n1` (single isomer, unassigned) [Compound A172a], the figures for the IC50 against DGKζ and on DGKα were 108 nM and 158 nM, respectively.

As for `CC[C@@H]1CN(c2cc(=O)n(C)c3cn(CC#N)nc23)[C@@H](C)CN1C(C)c1ccn2nc(C)cc2n1` (single isomer, unassigned) [Compound A172b], the values for the IC50 against DGKζ and against DGKα were over 10000 nM and 7830 nM, respectively.

With `CC[C@@H]1CN(c2cc(=O)n(C)c3cn(CC#N)nc23)[C@@H](C)CN1[C@@H](C)c1ccn2nc(C)c(F)c2n1` (single isomer, unassigned) [Compound A173a], the figures for the IC50 against DGKζ and on DGKα were 19 nM and 168 nM, respectively.

`CC[C@@H]1CN(c2cc(=O)n(C)c3cn(CC#N)nc23)[C@@H](C)CN1[C@H](C)c1ccn2nc(C)c(F)c2n1` (single isomer, unassigned) [Compound A173b]: the IC50 on DGKζ is 2950 nM; on DGKα it was over 10000 nM.

`CC[C@H]1CN(C(C)c2ccc3ncc(Cl)n3n2)[C@H](CC)CN1c1nc(=O)n(C)c2cn(CC#N)nc12` (single isomer, unassigned) [Compound A174a]: the IC50 at DGKζ came out at 8850 nM; on DGKα, 6470 nM.

With `CC[C@H]1CN(C(C)c2ccc3ncc(Cl)n3n2)[C@H](CC)CN1c1nc(=O)n(C)c2cn(CC#N)nc12` (single isomer, unassigned) [Compound A174b], the IC50 came out at 8.9 nM against DGKζ and 53 nM at DGKα.

With `CC(c1cc2c(cc1F)OCC(C)(C)O2)N1C[C@H](C)N(c2cc(=O)n(C)c3cn(CC#N)nc23)C[C@H]1C` (single isomer, unassigned) [Compound A179a], the half-inhibitory concentration (IC50) stood at 1410 nM at DGKζ and 15900 nM against DGKα.

Turning to `CC(c1cc2c(cc1F)OCC(C)(C)O2)N1C[C@H](C)N(c2cc(=O)n(C)c3cn(CC#N)nc23)C[C@H]1C` (single isomer, unassigned) [Compound A179b], the IC50 came to 323 nM on DGKζ and 3190 nM on DGKα.

With `CC[C@H]1CN(C(C)c2ccc3cnncc3c2)[C@H](CC)CN1c1cc(=O)n(C)c2cn(CC#N)nc12` (single isomer, unassigned) [Compound A186a], the IC50 is 841 nM against DGKζ and 53 nM against DGKα.

As to `CC[C@H]1CN(C(C)c2ccc3cnncc3c2)[C@H](CC)CN1c1cc(=O)n(C)c2cn(CC#N)nc12` (single isomer, unassigned) [Compound A186b], the IC50 against DGKζ is over 10000 nM; on DGKα, 1220 nM.

Regarding `CC[C@H]1CN(C(C)c2ccc(N)nc2)[C@H](CC)CN1c1cc(=O)n(C)c2cn(CC#N)nc12` (single isomer, unassigned) [Compound A187a], the IC50 against DGKζ is over 10000 nM; against DGKα, 1990 nM.

Consider `CC[C@H]1CN(C(C)c2ccc(CN3CCC(OC)CC3)cc2)[C@H](CC)CN1c1cc(=O)n(C)c2cn(CC#N)nc12` (single isomer, unassigned) [Compound A189a], for which the IC50 on DGKζ amounted to 2190 nM; against DGKα, 1080 nM.

In the case of `CC[C@H]1CN(C(C)c2ccc(CN3CCC(OC)CC3)cc2)[C@H](CC)CN1c1cc(=O)n(C)c2cn(CC#N)nc12` (single isomer, unassigned) [Compound A189b], the IC50 on DGKζ worked out at 8540 nM; against DGKα, 11800 nM.

On to `CC[C@H]1CN(C(C)c2ccc(C(=O)NC)cc2)[C@H](CC)CN1c1cc(=O)n(C)c2cn(CC#N)nc12` (single isomer, unassigned) [Compound A193a], for which the IC50 against DGKζ turned out to be 2870 nM; on DGKα, 515 nM.

In the case of `CC[C@H]1CN(C(C)c2ccc(C(=O)NC)cc2)[C@H](CC)CN1c1cc(=O)n(C)c2cn(CC#N)nc12` (single isomer, unassigned) [Compound A193b], the results for the IC50 at DGKζ and against DGKα were over 10000 nM and 6510 nM, respectively.

For `CC[C@H]1CN(C(C)c2ccc(C(=O)N3CCC(OC)CC3)cc2)[C@H](CC)CN1c1cc(=O)n(C)c2cn(CC#N)nc12` (single isomer, unassigned) [Compound A194a], the half-inhibitory concentration (IC50) against DGKζ worked out at 1450 nM; against DGKα, 291 nM.

`CC[C@H]1CN(C(C)c2ccc(C(=O)N3CCC(OC)CC3)cc2)[C@H](CC)CN1c1cc(=O)n(C)c2cn(CC#N)nc12` (single isomer, unassigned) [Compound A194b]: the IC50 was 6050 nM against DGKζ and 2530 nM at DGKα.

In the case of `CC[C@H]1CN(C(C)c2ccc(C(=O)N(C)CCOC)cc2)[C@H](CC)CN1c1cc(=O)n(C)c2cn(CC#N)nc12` (single isomer, unassigned) [Compound A195a], the IC50 on DGKζ turned out to be 1410 nM; against DGKα, 774 nM.

`CC[C@H]1CN(C(C)c2ccc(C(=O)N(C)CCOC)cc2)[C@H](CC)CN1c1cc(=O)n(C)c2cn(CC#N)nc12` (single isomer, unassigned) [Compound A195b]: the IC50 at DGKζ is over 10000 nM; against DGKα, 4210 nM.

In the case of `CC[C@H]1CN(C(C)c2ccc(CN3CCC(OC)C3)cc2)[C@H](CC)CN1c1cc(=O)n(C)c2cn(CC#N)nc12` (single isomer, unassigned) [Compound A203a], the IC50 on DGKζ amounted to 2690 nM; at DGKα, 1110 nM.
